# Data taken from US8012956B2, “Tropane compounds” (Exelixis, Inc., priority 2007, dated 2011).
# Molecular target: HSP90 (Homo sapiens, UniProt P07900)
# Assay: HSP90 inhibition (HSP90 IC50)
# Assay type: biochemical
row,Compound,IC50 [nM]
1,"Cc1cc(C(N)=O)c(NCC(C)C)cc1C(=O)N[C@H]1C[C@H]2CC[C@@H](C1)N2c1ccc(C(=O)C2CC2)cn1 [N-{8-[5-(cyclopropylcarbonyl)pyridine-2-yl]-8-azabicyclo[3.2.1]oct-3-endo-yl}-2-methyl-5-[(2-methylpropyl)amino]benzene-1,4-dicarboxamide]",< 500
2,"CCC(Nc1cc(C(=O)N[C@H]2C[C@H]3CC[C@@H](C2)N3c2ccc(C(=O)C3CC3)cn2)c(C)cc1C(N)=O)C(F)(F)F (stereo partly drawn) [N-{8-[5-(cyclopropylcarbonyl)pyridine-2-yl]-8-azabicyclo[3.2.1]oct-3-endo-yl}-2-methyl-5-{[1-(trifluoromethyl)propyl]amino}benzene-1,4-dicarboxamide]",< 500
3,"CC[C@H](C)Nc1cc(C(=O)NC2CC3CCC(C2)N3c2ccc(C(=O)C3CC3)cn2)c(C)cc1C(N)=O (stereo partly drawn) [N-{8-[5-(cyclopropylcarbonyl)pyridine-2-yl]-8-azabicyclo[3.2.1]oct-3-endo-yl}-2-methyl-5-{[(1S)-1-methylpropyl]amino}benzene-1,4-dicarboxamide]",< 500
4,"CCC(CC)Nc1cc(C(=O)N[C@H]2C[C@H]3CC[C@@H](C2)N3c2ccc(C(=O)C3CC3)cn2)c(C(F)(F)F)cc1C(N)=O [N-{8-[5-(cyclopropylcarbonyl)pyridine-2-yl]-8-azabicyclo[3.2.1]oct-3-endo-yl}-5-[(1-ethylpropyl)amino]-2-(trifluoromethyl)benzene-1,4-dicarboxamide]",< 500
5,COc1cccc(C(=O)N[C@H]2C[C@H]3CC[C@@H](C2)N3c2ccc(C(=O)NN)cn2)c1C [N-{8-[5-(hydrazinocarbonyl)pyridin-2-yl]-8-azabicyclo[3.2.1]oct-3-endo-yl}-2-methyl-3-(methyloxy)benzamide],2000 to 10000
6,"CCN1CCC[C@@H](NC(=O)c2ccc(N3C4CCC3CC(NC(=O)c3cc(C)c(C(N)=O)cc3C)C4)nc2)C1 (stereo partly drawn) [N-{8-[5-({[(3R)-1-ethylpiperidin-3-yl]amino}carbonyl)pyridin-2-yl]-8-azabicyclo[3.2.1]oct-3-endo-yl}-2,5-dimethylbenzene-1,4-dicarboxamide]",< 500
7,"CCN1CC[C@@H](NC(=O)c2ccc(N3C4CCC3CC(NC(=O)c3cc(C)c(C(N)=O)cc3C)C4)nc2)C1 (stereo partly drawn) [N-{8-[5-({[(3R)-1-ethylpyrrolidin-3-yl]amino}carbonyl)pyridin-2-yl]-8-azabicyclo[3.2.1]oct-3-endo-yl}-2,5-dimethylbenzene-1,4-dicarboxamide]",< 500
8,"CCN1CCC[C@H](NC(=O)c2ccc(N3C4CCC3CC(NC(=O)c3cc(C)c(C(N)=O)cc3C)C4)nc2)C1 (stereo partly drawn) [N-{8-[5-({[(3S)-1-ethylpiperidin-3-yl]amino}carbonyl)pyridin-2-yl]-8-azabicyclo[3.2.1]oct-3-endo-yl}-2 5-dimethylbenzene-1,4-dicarboxamide]",500 to 999
9,"CCN1CC[C@H](NC(=O)c2ccc(N3C4CCC3CC(NC(=O)c3cc(C)c(C(N)=O)cc3C)C4)nc2)C1 (stereo partly drawn) [N-{8-[5-({[(3S)-1-ethylpyrrolidin-3-yl]amino}carbonyl)pyridin-2-yl]-8-azabicyclo[3.2.1]oct-3-endo-yl}-2,5-dimethylbenzene-1,4-dicarboxamide]",< 500
10,"Cc1cnc(CNC(=O)c2ccc(N3[C@@H]4CC[C@H]3C[C@@H](NC(=O)c3ccc(C(N)=O)cc3)C4)nc2)cn1 [N-{8-[5-({[(5-methylpyrazin-2-yl)methyl]amino}carbonyl)pyridin-2-yl]-8-azabicyclo[3.2.1]oct-3-endo-yl}benzene-1,4-dicarboxamide]",1000 to 2000
11,COc1ccc([C@H](C)NC(=O)c2ccc(N3C4CCC3CC(NC(=O)c3cccc(OC)c3C)C4)nc2)c(F)c1 (stereo partly drawn) [N-{(1S)-1-[2-fluoro-4-(methyloxy)phenyl]ethyl}-6-[3-endo-({[2-methyl-3-(methyloxy)phenyl]carbonyl}amino)-8-azabicyclo[3.2.1]oct-8-yl]pyridine-3-carboxamide],< 500
12,CCNC(=O)[C@@H](NC(=O)c1ccc(N2C3CCC2CC(NC(=O)c2cccc(OC)c2C)C3)nc1)c1ccc(OC)cc1 (stereo partly drawn) [N-{(1S)-2-(ethylamino)-1-{4-(methyloxy)phenyl]-2-oxoethyl}-6-[3-endo-({[2-methyl-3-(methyloxy)phenyl]carbonyl}amino)-8-azabicyclo[3.2.1]oct-8-yl]pyridine-3-carboxamide],500 to 999
13,CNC(=O)[C@@H](NC(=O)c1ccc(N2C3CCC2CC(NC(=O)c2cccc(OC)c2C)C3)nc1)c1ccc(OC)cc1 (stereo partly drawn) [N-{(1S)-2-(methylamino)-1-[4-(methyloxy)phenyl]-2-oxoethyl}-6-[3-endo-({[2-methyl-3-(methyloxy)phenyl]carbonyl}amino)-8-azabicyclo[3.2.1]oct-8-yl]pyridine-3-carboxamide],500 to 999
14,COc1ccc([C@H](NC(=O)c2ccc(N3C4CCC3CC(NC(=O)c3cccc(OC)c3C)C4)nc2)C(N)=O)cc1 (stereo partly drawn) [N-{(1S)-2-amino-1-[4-(methyloxy)phenyl]-2-oxoethyl}-6-[3-endo-({[2-methyl-3-(methyloxy)phenyl]carbonyl}amino)-8-azabicyclo[3.2.1]oct-8-yl]pyridine-3-carboxamide],500 to 999
15,"COc1cccc(C(=O)N[C@H]2C[C@H]3CC[C@@H](C2)N3c2ccc(C(=O)NCc3cccc(OC)c3OC)cn2)c1C [N-{[2,3-bis(methyloxy)phenyl]methyl}-6-[3-endo-({[2-methyl-3-(methyloxy)phenyl]carbonyl}amino)-8-azabicyclo[3.2.1]oct-8-yl]pyridine-3-carboxamide]",2000 to 10000
16,"COc1ccc(CNC(=O)c2ccc(N3[C@@H]4CC[C@H]3C[C@@H](NC(=O)c3cccc(OC)c3C)C4)nc2)c(OC)c1 [N-{[2,4-bis(methyloxy)phenyl]methyl}-6-[3-endo-({[2-methyl-3-(methyloxy)phenyl]carbonyl}amino)-8-azabicyclo[3.2.1]oct-8-yl]pyridine-3-carboxamide]",500 to 999
17,"COc1cc(F)c(CNC(=O)c2ccc(N3[C@@H]4CC[C@H]3C[C@@H](NC(=O)c3cccc(OC)c3C)C4)nc2)c(F)c1 [N-{[2,6-difluoro-4-(methyloxy)phenyl]methyl}-6-[3-endo-({[2-methyl-3-(methyloxy)phenyl]carbonyl}amino)-8-azabicyclo[3.2.1]oct-8-yl]pyridine-3-carboxamide]",< 500
18,CCOc1ccccc1CNC(=O)c1ccc(N2[C@@H]3CC[C@H]2C[C@@H](NC(=O)c2cccc(OC)c2C)C3)nc1 [N-{[2-(ethyloxy)phenyl]methyl}-6-[3-endo-({[2-methyl-3-(methyloxy)phenyl]carbonyl}amino)-8-azabicyclo[3.2.1]oct-8-yl]pyridine-3-carboxamide],500 to 999
19,COc1ccc(CNC(=O)c2ccc(N3[C@@H]4CC[C@H]3C[C@@H](NC(=O)c3cccc(OC)c3C)C4)nc2)c(Cl)c1 [N-{[2-chloro-4-(methyloxy)phenyl]methyl}-6-[3-endo-({[2-methyl-3-(methyloxy)phenyl]carbonyl}amino)-8-azabicyclo[3.2.1]oct-8-yl]pyridine-3-carboxamide],< 500
20,COc1ccc(CNC(=O)c2ccc(N3[C@@H]4CC[C@H]3C[C@@H](NC(=O)c3cccc(OC)c3C)C4)nc2)c(F)c1 [N-{[2-fluoro-4-(methyloxy)phenyl]methyl}-6-[3-endo-({[2-methyl-3-(methyloxy)phenyl]carbonyl}amino)-8-azabicyclo[3.2.1]oct-8-yl]pyridine-3-carboxamide],< 500
